Legend:
[1] = tested on: Human CD4+ T cells; assay: Relieving AMP-induced proliferation inhibition of human CD4+ T cells (CCK8); format: cell-based; settings: AMP 0.3 mM, day 5
Procedure: On day 1 of the experiment, CD4^+ T cells (Allcells Shanghai, PB009-2F-C) were thawed, and inoculated into two replicate wells according to 3×10^4 cells/well and 50 μL/well. The compound was diluted with a complete medium to form a stock solution (4×) of an appropriate concentration gradient, the compound solution was added to the above cells according to 50 μL/well, and the mixture was pre-incubated at 37° C. for 30 min. […] Meanwhile, a positive reference group (Human CD4^+ T+IL-2+CD3/CD28 beads) and a negative reference group (Human CD4^+ T+IL-2+CD3/CD28 beads+AMP) were set. AMP (Sigma; A1752-5G) was diluted with a complete medium to form an AMP solution (4×), the AMP solution was added to the above cells according to 50 μL/well, the final concentration was 0.3 mM, and the mixture was incubated at 37° C. On day 3 of the experiment, the AMP solution was added to the above plate according to 20 μL/well, and the final concentration was 0.3 mM. On day 5, the proliferation of the cells was detected by using a CCK8 kit (DojinDO; CK04).
Inhibition rates of the compound at different concentrations in relieving AMP-induced proliferation inhibition of CD4^+ T cells were calculated according to the following formula, the concentration of the compound was taken as the X-axis, the inhibition rate was taken as the Y-axis, and an EC50 value of the compound in relieving the AMP-induced proliferation inhibition of CD4^+ T cells was calculated by using Prism software.

[2] = Pharmacokinetic test on dogs; format: in vivo, male Beagle dogs; settings: for AUC(0-t) / Cmax / Tmax / half-life / clearance / Vd: male, Beagle, plasma, dog; for Vd: read-out: Vz
Procedure: (§1) In a pharmacokinetic test on mice, male ICR mice of 20 g to 25 g were used and fasted overnight. 3 mice were selected for orally intragastric administration (10 mg/kg). Before administration, and 15 min, 30 min, 1 h, 2 h, 4 h, 8 h, and 24 h after administration, blood was sampled from each mouse. Another 3 mice were selected for intravenous injection administration (3 mg/kg), and before administration, and 15 min, 30 min, 1 h, 2 h, 4 h, 8 h, and 24 h after administration, blood was sampled from each mouse. The blood sample was centrifuged at 6,800 g and 2 to 8° C. for 6 min, and plasma was collected and stored at −80° C. The plasma of each time point was vortex-mixed for 1 min with an acetonitrile solution containing the internal standard with a volume 3-5 times that of the plasma of each time point, and centrifuged at 13,000 rpm and 4° C. for 10 min, a supernatant was collected and mixed with water with a volume 3 times that of the supernatant, and an appropriate amount of the mixed solution was used for LC-MS/MS analysis. The main pharmacokinetic parameters were analyzed by using a WinNonlin 7.0 non-compartmental model.
In a pharmacokinetic test on dogs, male Beagle dogs of 8 to 10 kg were used and fasted overnight. 3 Beagle dogs were selected for orally intragastric administration (5 mg/kg). Another 3 Beagle dogs were selected for intravenous injection administration (1 mg/kg). Other operations were the same as the pharmacokinetic test on mice.

[3] = molecular target: Human-CD73 enzyme (Homo sapiens (Human), UniProt P21589); assay: In vitro inhibitory activity to recombinant human CD73 enzyme (ATP-GLO); format: biochemical; settings: Human-CD73 0.1 μg/mL, AMP 100 μM
Procedure: Human-CD73 (Novoprotein; C446) was diluted with Tris-MgCl2 buffer to form a stock solution (3×), which was placed in a 96-well plate according to 20 μL/well to obtain a final concentration of 0.1 μg/mL. The compound was diluted with Tris-MgCl2 buffer to form a stock solution (3×) of an appropriate concentration gradient, the compound solution was added to the above 96-well plate according to 20 μL/well and uniformly mixed with the Human-CD73 solution, and the mixture was incubated at the room temperature for 30 min. Meanwhile, a positive reference group (without the compound) and a negative reference group (without CD73) were set. AMP (Sigma; A1752-5G) was diluted with Tris-MgCl2 buffer to form a stock solution (3×), which was added to the above 96-well plate according to 20 μL/well to obtain a final concentration of 100 μM, and the mixture was uniformly mixed and incubated at 37° C. for 60 min; ATP (Sigma; A7699-1G) was diluted with Tris-MgCl2 buffer to form a stock solution (7×), which was added to the above 96-well plate according to 10 μL/well to obtain a final concentration of 100 μM, and the mixture was uniformly mixed, incubated for 5 min, and tested by using an ATP-GLO kit (Promega; G7573).
Human-CD73 inhibition rates of the compound at different concentrations were calculated according to the following formula, the concentration of the compound was taken as the X-axis, the inhibition rate was taken as the Y-axis, and an IC50 value of the compound in inhibiting Human-CD73 was calculated by using Prism software.

[4] = molecular target: CD73 bound to the surfaces of A375 cells (Homo sapiens (Human), UniProt P21589); assay: Inhibitory activity to CD73 enzyme bound to the surfaces of human melanoma A375 cells; format: cell-based; settings: AMP 200 μM, 16 h
Procedure: The compound was diluted with serum-free DMEM to form a stock solution (5×) of an appropriate concentration gradient, the compound solution was added to the cells in the above 96-well plate according to 20 μL/well, and the mixture was placed in an incubator and pre-incubated for 30 min.
A375-bound CD73 inhibition rates of the compound at different concentrations were calculated according to the following formula, the concentration of the compound was taken as the X-axis, the inhibition rate was taken as the Y-axis, and an IC50 value of the compound in inhibiting A375-bound CD73 was calculated by using Prism software.

[5] = Pharmacokinetic test on mice; format: in vivo, male ICR mice; settings: for Vd: read-out: Vz; for pharmacokinetic properties compared to the reference compounds: mice
Procedure: as §1

[6] = tested on: A375 melanoma; assay: In vivo efficacy on A375 melanoma (PBMC + A375 cells in NCG mice); settings: anti PD-1 10 mg/kg alone
Procedure: A375 cells in logarithmic growth phase were collected, cultured in Mitomycin C for 2 h, and washed three times with PBS. After 5 days of co-culture of PBMC and A375 cells, PBMC and freshly digested A375 cells were collected, 5×10^5 PBMC and 4×10^6 A375 cells were inoculated subcutaneously on the right side of NCG mice according to 0.2 mL/mouse (containing 50% Matrigel). After inoculation, the mice were randomly divided into a model group and an administration group according to body weight of the mice, tumor size and animal weight were measured and recorded before and during administration, and tumor sizes of the model group and the administration group were compared after treatment to determine the efficacy.

[7] = Plasma protein binding by equilibrium dialysis, canine plasma; format: in vitro ADME; settings: dog, 37° C.
Procedure: (§2) Plasma protein binding rates of the compounds were detected by equilibrium dialysis (HTDialysis, HTD 96b). The compound was diluted with DMSO to form a 0.5 mM stock solution, and the stock solution was diluted 25 times with a 0.05 M sodium phosphate buffer to form a 20 μM working solution. Plasma was placed in a new 96-well plate according to 380 μL/well, then the working solution was added to and uniformly mixed with the plasma according to 20 μL/well, the final concentration of the compound was 1 μM, and each well contained 0.2% DMSO.
(§3) 100 μL of 0.05 M sodium phosphate buffer was added to a receiving side of each dialysis chamber (HTD 96b), and 100 μL of plasma containing the compound was added to a supply side. The dialysis apparatus was closed with a plastic lid, and incubated with shaking at 37° C. for 5 h.
(§4) After the incubation was completed, 25 μL of sample was collected respectively from the supply side and the receiving side of the dialysis chamber, and placed in a new 96-well plate, an equal volume of blank plasma was added to and uniformly mixed with each sample on the supply side, an equal volume of 0.05 M sodium phosphate buffer was added to and uniformly mixed with each sample on the receiving side. 200 μL of acetonitrile solution containing the internal standard was added to each well, the 96-well plate was vortex-shaken at 600 rpm for 10 min, and centrifuged at 5,594 g for 15 min (Thermo Multifuge×3R), 50 μL of supernatant was transferred to a new 96-well plate, and the sample was mixed with 50 μL of ultrapure water and subjected to LC-MS/MS analysis.
(§5) A plasma protein binding rate and a fraction unbound in plasma were calculated according to the following formulas:
(§6) % binding rate=100×([supply side concentration]5h−[receiving side concentration]5h)/[supply side concentration]5h; and
(§7) % fraction unbound in plasma=100−% binding rate.

[8] = Plasma protein binding by equilibrium dialysis, mouse plasma; format: in vitro ADME; settings: 37° C.
Procedure: as §2, §3, §4, §5, §6, §7

[9] = Plasma protein binding by equilibrium dialysis, human plasma; format: in vitro ADME; settings: 37° C.
Procedure: as §2, §3, §4, §5, §6, §7

[10] = po, orally intragastric 5 mg/kg
[11] = male, ICR, plasma, po, mouse, orally intragastric 10 mg/kg
[12] = male, ICR, plasma, po, mouse, orally intragastric 10 mg/kg, read-out: AUC0-t
[13] = male, ICR, plasma, po, mouse, orally intragastric 10 mg/kg, read-out: Cmax
[14] = male, ICR, plasma, po, mouse, orally intragastric 10 mg/kg, read-out: Tmax
[15] = male, ICR, plasma, mouse, intravenous injection 3 mg/kg
[16] = male, ICR, plasma, mouse, intravenous injection 3 mg/kg, read-out: AUC0-t
[17] = mouse, orally intragastric 10 mg/kg

Chain of CD73 bound to the surfaces of A375 cells (P21589 27-574): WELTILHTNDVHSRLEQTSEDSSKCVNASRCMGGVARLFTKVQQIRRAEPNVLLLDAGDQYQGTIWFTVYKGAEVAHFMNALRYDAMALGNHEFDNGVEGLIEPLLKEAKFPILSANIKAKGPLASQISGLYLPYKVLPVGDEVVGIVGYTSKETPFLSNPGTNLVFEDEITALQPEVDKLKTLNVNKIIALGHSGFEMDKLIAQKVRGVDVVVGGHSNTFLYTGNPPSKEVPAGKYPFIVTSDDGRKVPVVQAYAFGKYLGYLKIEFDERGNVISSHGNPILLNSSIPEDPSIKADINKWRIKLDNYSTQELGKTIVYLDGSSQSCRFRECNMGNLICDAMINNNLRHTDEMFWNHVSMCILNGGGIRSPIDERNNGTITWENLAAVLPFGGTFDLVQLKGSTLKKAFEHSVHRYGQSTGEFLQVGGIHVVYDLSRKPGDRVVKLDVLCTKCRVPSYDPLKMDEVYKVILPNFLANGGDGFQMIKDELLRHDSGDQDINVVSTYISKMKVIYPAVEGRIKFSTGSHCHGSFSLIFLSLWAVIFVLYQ
Chain of Human-CD73 enzyme (P21589 27-574): as above

Compound | EC50 ([1]; Homo sapiens, 120 h) [nM] | AUC(0-t) [2, 10] [ng·h/mL] | Cmax [2, 10] [ng/mL] | Tmax [2, 10] [h] | half-life [2, 10] [h] | AUC(0-t) ([2]; intravenous injection 1 mg/kg) [ng·h/mL] | clearance ([2]; intravenous injection 1 mg/kg) [mL/min/kg] | half-life ([2]; intravenous injection 1 mg/kg) [h] | Vd ([2]; intravenous injection 1 mg/kg) [L/kg] | IC50 [3] [nM] | IC50 [4] [nM] | half-life [5, 11] [h] | AUC(0-t) [5, 12] [ng·h/mL] | Cmax [5, 13] [ng/mL] | Tmax [5, 14] [h] | clearance [5, 15] [mL/min/kg] | half-life [5, 15] [h] | AUC(0-t) [5, 16] [ng·h/mL] | Vd [5, 15] [L/kg] | pharmacokinetic properties compared to the reference compounds [5] | other results
O=c1[nH]cc(-c2cc([C@@H]3C[C@H]3C(F)(F)F)c(Cl)nn2)c(=O)[nH]1 [Compound 4, 5-(6-chloro-5-((1R,2R)-2-(trifluoromethyl)cyclopropyl)pyridazin-3-yl)pyrimidine-2,4(1H,3H)-dione] | 1070 | 65700 | 7550 | 1.17 | 4.13 | 5810 | 3 | 3.63 | 0.95 | 58.4 | 134 | 2.85 | 185000 | 16100 | 3 | 3.33 | 3.68 | 15200 | 1.05 | significantly improved | exposure compared to the reference compounds ([2]; dogs): much higher
Toripalimab [anti PD-1] |  |  |  |  |  |  |  |  |  |  |  |  |  |  |  |  |  |  |  |  | % TGI [6]: 25.08%; Mean ± SEM (tumor size) ([6]; in mm³ (unit assumed)): 1472 ± 194.9
O=c1[nH]cc(-c2cc([C@H]3C[C@@H]3C(F)F)c(Cl)nn2)c(=O)[nH]1 [Reference compound 2, 5-(6-chloro-5-((1S,2S)-2-(difluoromethyl)cyclopropyl)pyridazin-3-yl)pyrimidine-2,4(1H,3H)-dione, reference compound] | 93.7 | 9000 | 3620 | 0.5 | 3.3 | 1560 | 10.8 | 1.37 | 1.33 | 16.8 | 67.3 | 1.09 | 5380 | 4540 | 0.42 | 22 | 1.25 | 2360 | 2.4 |  | fraction unbound at 5 h, 1 μM [7]: 0.177; fraction unbound at 5 h, 1 μM [8]: 0.261; fraction unbound at 5 h, 1 μM [9]: 0.098
O=c1[nH]cc(-c2cc([C@H]3C[C@@H]3C(F)(F)F)c(Cl)nn2)c(=O)[nH]1 [Compound 3, 5-(6-chloro-5-((1S,2S)-2-(trifluoromethyl)cyclopropyl)pyridazin-3-yl)pyrimidine-2,4(1H,3H)-dione] | 111 |  |  |  |  |  |  |  |  |  | 26.8 | 2.7 | 107000 | 12100 | 0.83 | 3.67 | 3.72 | 13800 | 1.17 | significantly improved | 
O=c1[nH]cc(-c2cc([C@H]3C[C@@H]3CC(F)(F)F)c(Cl)nn2)c(=O)[nH]1 [Compound 9, 5-(6-chloro-5-((1S,2R)-2-(2,2,2-trifluoroethyl)cyclopropyl)pyridazin-3-yl)pyrimidine-2,4(1H,3H)-dione] |  |  |  |  |  |  |  |  |  | 8.17 | 5.56 |  |  |  |  |  |  |  |  | significantly improved | EC50 [1]: 32.6 nM; AUC(0-t) [5, 17]: 65441 ng·h/mL; Cmax [5, 17]: 6601.90 ng/mL; T1/2 [5, 17]: 4.87 h; Tmax [5, 17]: 1.17 h

From US20230399314A1, “CD73 INHIBITOR AND USE THEREOF” (WUHAN HUMANWELL INNOVATIVE DRUG RESEARCH AND DEVELOPMENT …, priority 2020, published 2023)
